Data taken from US20070275977A1, “N-OXIDES OF PYRIDYLMETHYL -PIPERAZINE AND -PIPERIDINE DERIVATIVES” (priority 2006, published 2007).

Experiments:
Muscarine-M1 = Muscarine-M1 (Homo sapiens, UniProt P11229); assay: In vitro receptor affinity, Muscarine-M1; assay type: binding; conditions: radioligand [3H]-pirenzepine, read-out: K1 (in vitro receptor affinity)
Procedure: (§1) ln vitro affinity for neurotransmitter receptors: The binding data collected below were either obtained by CE REP (128, rue Danton, 92500 Rueil-Malmaison, France) or at Solvay Pharmaceuticals B.V. (C. J. van Houtenlaan 36, 1381 CP Weesp, The Netherlands), using well documented standard procedures. The affinities for dopamine-D2 and 5-HT1A receptors for instance, were measured as described by Creese (1997) and Gozlan (1983) respectively.

Serotonin-5-HT1A = target: T1, Serotonin-5-HT1A (Homo sapiens, UniProt P08908); assay: In vitro receptor affinity, Serotonin-5-HT1A; assay type: binding; conditions: radioligand [3H]-8-OH-DPAT, read-out: K1 (in vitro receptor affinity)
T1 sequence (P08908 1-422): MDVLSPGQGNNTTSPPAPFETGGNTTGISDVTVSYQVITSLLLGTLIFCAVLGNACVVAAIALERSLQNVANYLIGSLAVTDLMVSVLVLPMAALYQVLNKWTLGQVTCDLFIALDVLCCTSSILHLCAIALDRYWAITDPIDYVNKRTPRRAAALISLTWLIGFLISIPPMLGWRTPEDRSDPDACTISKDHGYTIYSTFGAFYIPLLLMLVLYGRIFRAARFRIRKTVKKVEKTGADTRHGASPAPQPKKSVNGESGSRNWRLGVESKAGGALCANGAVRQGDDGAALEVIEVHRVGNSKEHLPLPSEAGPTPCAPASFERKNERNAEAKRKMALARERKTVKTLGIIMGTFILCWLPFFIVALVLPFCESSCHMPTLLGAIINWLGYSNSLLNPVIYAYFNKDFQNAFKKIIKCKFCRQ
Procedure: as §1

human 5-HT1A receptors = target: T2, human 5-HT1A receptors (Homo sapiens, UniProt P08908); assay: In vitro functional agonism at 5-HT1A receptors, adenylate cyclase in CHO cell-lines; assay type: cell-based; conditions: CHO cell-lines expressing cloned receptor; read-out: Agonism human 5-HT1A receptors, pEC50 (converted)
T2 construct: expressed in transfected cells; host or cells: CHO
Procedure: In vitro (ant)agonistic activity at human D2 receptors and 5-HT1A receptors was measured according to the methods described by Solomon (1974) and Weiss (1985) respectively, on the formation of adenylate cyclase in CHO cell-lines expressing these cloned receptors.

μ-opiate = μ-opiate (Rattus norvegicus, UniProt P33535); assay: In vitro receptor affinity, μ-opiate; assay type: binding; conditions: radioligand [3H]-DAMGO, read-out: K1 (in vitro receptor affinity)
Procedure: as §1

Serotonin-5-HT4 = Serotonin-5-HT4 (Homo sapiens, UniProt Q13639); assay: In vitro receptor affinity, Serotonin-5-HT4; assay type: binding; conditions: radioligand [3H]-GR 113808, read-out: K1 (in vitro receptor affinity)
Procedure: as §1

Serotonin-5-HT2A = Serotonin-5-HT2A (Homo sapiens, UniProt P28223); assay: In vitro receptor affinity, Serotonin-5-HT2A; assay type: binding; conditions: radioligand [3H]-ketanserin, read-out: K1 (in vitro receptor affinity)
Procedure: as §1

Serotonin-5-HT1D = assay: In vitro receptor affinity, Serotonin-5-HT1D; assay type: binding; conditions: bovine, radioligand [3H]-serotonin; read-out: K1 (in vitro receptor affinity)
Procedure: as §1

α2-adrenergic = assay: In vitro receptor affinity, α2-adrenergic; assay type: binding; conditions: rat, radioligand [3H]-RX 821002; read-out: K1 (in vitro receptor affinity)
Procedure: as §1

Muscarine-M4 = Muscarine-M4 (Homo sapiens, UniProt P08173); assay: In vitro receptor affinity, Muscarine-M4; assay type: binding; conditions: radioligand [3H]-4-DAMP, read-out: K1 (in vitro receptor affinity)
Procedure: as §1

Dopamine-D4 = Dopamine-D4 (Homo sapiens, UniProt P21917); assay: In vitro receptor affinity, Dopamine-D4; assay type: binding; conditions: radioligand [3H]-spiperone, read-out: K1 (in vitro receptor affinity)
Procedure: as §1

Dopamine-D1 = Dopamine-D1 (Homo sapiens, UniProt P21728); assay: In vitro receptor affinity, Dopamine-D1; assay type: binding; conditions: radioligand [3H]-SCH 23390, read-out: K1 (in vitro receptor affinity)
Procedure: as §1

[1] = system: Apomorphine-induced climbing behaviour in mice; assay: Antagonism of apomorphine-induced climbing behaviour in mice; assay type: in vivo; conditions: Mus musculus, po, read-out: Antagon. apomorphine ind. climbing: ED50
Procedure: (§2) For oral (p.o.) administration: to the desired quantity (0.5-5 mg) of the solid test compound in a glass tube, some glass beads were added and the solid was milled by vortexing for 2 minutes. After addition of 1 ml of a solution of 1% methylcellulose in water and 2% (v/v) of Poloxamer 188 (Lutrol F68), the compound was suspended by vortexing for 10 minutes. The pH was adjusted to 7. Remaining particles in the suspension were further suspended by using an ultrasonic bath.
(§3) Lower lip retraction, an in vivo animal model for serotonin 5-HT1A receptor agonistic activity, was measured according to the method described by Berendsen (1989); Apomorphine-induced climbing behaviour in mice, an in vivo animal model for dopamine-D2 receptor antagonistic activity, was determined according to the method described by Costall (1978).

Serotonin-5-HT2C = Serotonin-5-HT2C (Homo sapiens, UniProt P28335); assay: In vitro receptor affinity, Serotonin-5-HT2C; assay type: binding; conditions: radioligand [125I]-DOI, read-out: K1 (in vitro receptor affinity)
Procedure: as §1

Serotonin-5-HT6 = Serotonin-5-HT6 (Homo sapiens, UniProt P50406); assay: In vitro receptor affinity, Serotonin-5-HT6; assay type: binding; conditions: radioligand [3H]-LSD, read-out: K1 (in vitro receptor affinity)
Procedure: as §1

[2] = Partition coefficient, experimental (Log P); assay type: physicochemical; conditions: at pH 7.0
Muscarine-M5 = Muscarine-M5 (Homo sapiens, UniProt P08912); assay: In vitro receptor affinity, Muscarine-M5; assay type: binding; conditions: radioligand [3H]-4-DAMP, read-out: K1 (in vitro receptor affinity)
Procedure: as §1

α1-adrenergic = assay: In vitro receptor affinity, α1-adrenergic; assay type: binding; conditions: rat, radioligand [3H]-prazosin; read-out: K1 (in vitro receptor affinity)
Procedure: as §1

Serotonin-5-HT3 = Serotonin-5-HT3 (Rattus norvegicus, UniProt P35563); assay: In vitro receptor affinity, Serotonin-5-HT3; assay type: binding; conditions: radioligand [3H]-GR 38032F, read-out: K1 (in vitro receptor affinity)
Procedure: as §1

Lower lip retraction = assay: Lower lip retraction; assay type: in vivo; conditions: po; read-out: Lower Lip Retraction: ED50
Procedure: as §2, §3

Sequence of Muscarine-M4 (P08173 whole entry): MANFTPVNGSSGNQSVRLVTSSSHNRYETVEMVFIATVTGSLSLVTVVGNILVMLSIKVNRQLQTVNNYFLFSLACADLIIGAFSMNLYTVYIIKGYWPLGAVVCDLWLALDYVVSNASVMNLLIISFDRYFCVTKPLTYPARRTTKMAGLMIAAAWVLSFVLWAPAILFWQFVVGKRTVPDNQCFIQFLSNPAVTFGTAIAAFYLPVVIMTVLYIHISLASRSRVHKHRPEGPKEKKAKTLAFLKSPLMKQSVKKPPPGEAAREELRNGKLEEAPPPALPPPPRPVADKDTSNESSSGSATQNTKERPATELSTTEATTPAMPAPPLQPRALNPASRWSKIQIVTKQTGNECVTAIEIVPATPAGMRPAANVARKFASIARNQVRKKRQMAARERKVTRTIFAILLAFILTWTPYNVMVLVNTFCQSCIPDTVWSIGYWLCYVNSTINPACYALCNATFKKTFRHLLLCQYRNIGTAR
Sequence of Muscarine-M1 (P11229 whole entry): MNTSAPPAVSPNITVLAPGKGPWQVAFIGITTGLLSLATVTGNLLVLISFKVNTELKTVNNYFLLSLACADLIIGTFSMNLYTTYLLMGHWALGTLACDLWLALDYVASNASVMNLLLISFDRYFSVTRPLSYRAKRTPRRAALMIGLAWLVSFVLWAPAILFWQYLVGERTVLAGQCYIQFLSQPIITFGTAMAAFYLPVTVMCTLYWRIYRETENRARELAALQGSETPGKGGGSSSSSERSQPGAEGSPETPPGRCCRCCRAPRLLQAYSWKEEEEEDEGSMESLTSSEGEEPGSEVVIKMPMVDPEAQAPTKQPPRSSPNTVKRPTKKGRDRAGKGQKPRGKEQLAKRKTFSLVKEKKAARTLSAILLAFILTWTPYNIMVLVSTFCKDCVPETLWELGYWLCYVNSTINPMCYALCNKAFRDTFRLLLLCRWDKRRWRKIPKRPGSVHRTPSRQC
Sequence of Serotonin-5-HT6 (P50406 whole entry): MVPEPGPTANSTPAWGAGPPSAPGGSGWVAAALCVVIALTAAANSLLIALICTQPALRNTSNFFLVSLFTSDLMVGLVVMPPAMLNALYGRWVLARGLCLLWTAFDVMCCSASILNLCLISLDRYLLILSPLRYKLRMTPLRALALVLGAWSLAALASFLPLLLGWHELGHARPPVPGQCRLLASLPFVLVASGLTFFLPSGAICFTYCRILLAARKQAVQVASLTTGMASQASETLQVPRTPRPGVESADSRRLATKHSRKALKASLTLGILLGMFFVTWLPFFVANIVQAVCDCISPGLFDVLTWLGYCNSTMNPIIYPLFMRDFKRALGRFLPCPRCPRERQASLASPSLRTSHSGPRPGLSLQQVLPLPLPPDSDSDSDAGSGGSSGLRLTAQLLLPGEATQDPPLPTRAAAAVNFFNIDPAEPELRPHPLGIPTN
Sequence of Serotonin-5-HT4 (Q13639 whole entry): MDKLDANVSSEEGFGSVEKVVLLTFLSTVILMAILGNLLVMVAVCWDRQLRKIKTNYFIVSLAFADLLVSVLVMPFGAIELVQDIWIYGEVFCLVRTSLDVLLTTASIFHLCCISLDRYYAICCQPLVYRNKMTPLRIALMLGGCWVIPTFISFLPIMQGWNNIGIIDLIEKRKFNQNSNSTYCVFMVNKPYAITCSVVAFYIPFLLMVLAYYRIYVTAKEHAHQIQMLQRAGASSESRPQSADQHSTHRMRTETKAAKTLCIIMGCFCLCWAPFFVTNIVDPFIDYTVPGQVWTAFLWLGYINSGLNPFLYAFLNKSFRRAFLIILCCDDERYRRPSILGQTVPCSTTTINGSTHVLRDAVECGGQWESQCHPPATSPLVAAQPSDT
Sequence of Serotonin-5-HT3 (P35563 24-483): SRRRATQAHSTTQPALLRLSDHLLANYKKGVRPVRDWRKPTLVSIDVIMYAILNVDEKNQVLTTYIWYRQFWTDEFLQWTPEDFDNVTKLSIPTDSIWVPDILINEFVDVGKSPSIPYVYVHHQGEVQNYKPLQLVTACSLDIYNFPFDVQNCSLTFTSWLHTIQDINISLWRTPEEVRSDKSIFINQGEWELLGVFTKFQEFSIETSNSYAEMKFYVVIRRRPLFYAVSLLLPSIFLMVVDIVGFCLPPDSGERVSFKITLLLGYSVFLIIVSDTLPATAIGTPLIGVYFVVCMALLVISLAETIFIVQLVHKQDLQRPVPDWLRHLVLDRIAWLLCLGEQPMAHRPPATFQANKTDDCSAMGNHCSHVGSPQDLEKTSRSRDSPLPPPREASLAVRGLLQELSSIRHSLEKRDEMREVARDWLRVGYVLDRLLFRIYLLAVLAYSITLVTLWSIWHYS
Sequence of Dopamine-D1 (P21728 whole entry): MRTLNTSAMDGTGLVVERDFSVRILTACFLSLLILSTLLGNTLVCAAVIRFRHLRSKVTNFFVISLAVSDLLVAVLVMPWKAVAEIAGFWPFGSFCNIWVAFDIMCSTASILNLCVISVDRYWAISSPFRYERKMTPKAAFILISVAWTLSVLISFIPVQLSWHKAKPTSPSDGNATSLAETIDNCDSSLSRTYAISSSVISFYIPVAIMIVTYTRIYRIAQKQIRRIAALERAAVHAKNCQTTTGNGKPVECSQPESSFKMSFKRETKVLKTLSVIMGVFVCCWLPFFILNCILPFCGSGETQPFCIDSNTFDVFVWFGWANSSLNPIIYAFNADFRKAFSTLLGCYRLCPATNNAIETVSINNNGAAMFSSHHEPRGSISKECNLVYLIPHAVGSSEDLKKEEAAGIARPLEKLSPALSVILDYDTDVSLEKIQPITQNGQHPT
Sequence of Serotonin-5-HT2C (P28335 33-458): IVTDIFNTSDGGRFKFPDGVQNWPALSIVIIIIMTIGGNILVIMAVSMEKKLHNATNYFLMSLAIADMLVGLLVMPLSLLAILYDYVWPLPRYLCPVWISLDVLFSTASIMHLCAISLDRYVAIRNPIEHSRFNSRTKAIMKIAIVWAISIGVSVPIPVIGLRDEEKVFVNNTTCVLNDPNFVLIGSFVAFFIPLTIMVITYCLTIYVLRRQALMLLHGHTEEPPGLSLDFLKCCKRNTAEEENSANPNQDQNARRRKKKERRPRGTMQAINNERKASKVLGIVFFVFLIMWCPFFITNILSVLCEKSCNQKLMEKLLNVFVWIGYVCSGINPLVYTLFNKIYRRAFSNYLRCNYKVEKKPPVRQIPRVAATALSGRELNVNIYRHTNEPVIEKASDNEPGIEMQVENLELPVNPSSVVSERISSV
Sequence of Muscarine-M5 (P08912 whole entry): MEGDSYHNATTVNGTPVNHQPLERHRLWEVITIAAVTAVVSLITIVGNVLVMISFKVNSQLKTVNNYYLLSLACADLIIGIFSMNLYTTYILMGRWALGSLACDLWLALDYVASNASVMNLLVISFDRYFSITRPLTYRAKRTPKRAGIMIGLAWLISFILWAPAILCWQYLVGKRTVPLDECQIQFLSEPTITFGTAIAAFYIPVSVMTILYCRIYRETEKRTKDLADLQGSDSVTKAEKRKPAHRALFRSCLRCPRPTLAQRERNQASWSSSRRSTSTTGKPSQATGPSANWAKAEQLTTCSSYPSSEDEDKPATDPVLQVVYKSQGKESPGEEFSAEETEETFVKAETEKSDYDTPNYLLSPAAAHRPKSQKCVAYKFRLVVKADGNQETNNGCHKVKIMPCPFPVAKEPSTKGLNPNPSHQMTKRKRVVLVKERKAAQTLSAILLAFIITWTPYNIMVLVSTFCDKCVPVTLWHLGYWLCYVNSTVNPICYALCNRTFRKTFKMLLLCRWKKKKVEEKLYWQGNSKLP
Sequence of Dopamine-D4 (P21917 whole entry): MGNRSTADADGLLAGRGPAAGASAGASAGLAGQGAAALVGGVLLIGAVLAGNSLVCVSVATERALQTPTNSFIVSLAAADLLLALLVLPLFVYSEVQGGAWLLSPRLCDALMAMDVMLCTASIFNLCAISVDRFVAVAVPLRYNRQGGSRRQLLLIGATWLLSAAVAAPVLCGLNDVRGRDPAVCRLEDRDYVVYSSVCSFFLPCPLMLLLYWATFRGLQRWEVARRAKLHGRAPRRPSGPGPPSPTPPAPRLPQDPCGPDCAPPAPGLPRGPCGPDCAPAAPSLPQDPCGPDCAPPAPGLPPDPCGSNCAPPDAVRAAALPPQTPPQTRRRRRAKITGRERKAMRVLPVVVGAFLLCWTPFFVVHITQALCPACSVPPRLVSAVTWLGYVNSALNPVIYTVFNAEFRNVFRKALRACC
Sequence of μ-opiate (P33535 whole entry): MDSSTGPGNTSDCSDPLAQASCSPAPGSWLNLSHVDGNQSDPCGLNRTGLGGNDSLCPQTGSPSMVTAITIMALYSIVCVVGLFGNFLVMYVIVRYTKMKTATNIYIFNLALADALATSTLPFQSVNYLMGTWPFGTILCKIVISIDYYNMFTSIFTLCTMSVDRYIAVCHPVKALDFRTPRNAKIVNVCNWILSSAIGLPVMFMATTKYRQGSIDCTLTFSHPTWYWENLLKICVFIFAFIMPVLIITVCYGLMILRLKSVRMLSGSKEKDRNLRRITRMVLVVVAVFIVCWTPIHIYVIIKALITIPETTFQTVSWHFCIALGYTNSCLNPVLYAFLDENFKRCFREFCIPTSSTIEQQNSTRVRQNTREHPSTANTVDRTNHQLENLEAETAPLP
Sequence of Serotonin-5-HT2A (P28223 whole entry): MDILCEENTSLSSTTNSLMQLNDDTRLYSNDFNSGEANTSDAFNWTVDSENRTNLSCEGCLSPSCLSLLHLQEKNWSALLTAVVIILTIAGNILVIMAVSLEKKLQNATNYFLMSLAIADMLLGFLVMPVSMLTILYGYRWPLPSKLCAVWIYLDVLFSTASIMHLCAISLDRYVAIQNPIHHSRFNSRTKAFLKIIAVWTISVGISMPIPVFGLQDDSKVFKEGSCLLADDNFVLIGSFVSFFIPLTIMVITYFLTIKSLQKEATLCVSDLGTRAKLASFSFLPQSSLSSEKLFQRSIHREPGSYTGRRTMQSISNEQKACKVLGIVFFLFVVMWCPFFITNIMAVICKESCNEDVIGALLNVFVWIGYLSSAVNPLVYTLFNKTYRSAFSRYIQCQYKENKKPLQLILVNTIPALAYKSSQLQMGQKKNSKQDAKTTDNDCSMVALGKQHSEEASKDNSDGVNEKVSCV

Compound: Fc1ccc(-c2cncc(CN3CCN(c4cccc5c4OCCO5)CC3)c2)cc1 [SLV313, 3-[[4-(2,3-dihydro-1,4-benzodioxin-5-yl)-1-piperazinyl]methyl]-5-(4-fluorophenyl)pyridine, reference compound]
- Ki (Muscarine-M1): > 10 µM
- Ki (Serotonin-5-HT1A): 0.0008 µM
- EC50 (human 5-HT1A receptors): 0.00126 µM
- Ki (μ-opiate): 8 µM
- Ki (Serotonin-5-HT4): > 1 µM
- Ki (Serotonin-5-HT2A): 0.25 µM
- Ki (Serotonin-5-HT1D): 13 µM
- Ki (α2-adrenergic): > 1 µM
- Ki (Muscarine-M4): > 1 µM
- Ki (Dopamine-D4): 0.01 µM
- Ki (Dopamine-D1): > 10 µM
- ED50 [1]: 0.5 mg/kg
- Ki (Serotonin-5-HT2C): > 1 µM
- Ki (Serotonin-5-HT6): > 1 µM
- logP [2]: 3.6
- Ki (Muscarine-M5): > 1 µM
- Ki (α1-adrenergic): 0.5 µM
- Ki (Serotonin-5-HT3): > 1 µM
- ED50 (Lower lip retraction): 2.3 mg/kg

Compound: [O-][n+]1cc(CN2CCN(c3cccc4c3OCCO4)CC2)cc(-c2ccc(F)cc2)c1 [pyridine N-oxide, 1-(2,3-dihydro-1,4-benzodioxin-5-yl)-4-[[5-(4-fluorophenyl)-1-oxido-3-pyridinyl]methyl]-piperazine]
- Ki (Muscarine-M1): > 10 µM
- Ki (Serotonin-5-HT1A): 0.0004 µM
- EC50 (human 5-HT1A receptors): 0.00158 µM
- Ki (μ-opiate): 3.2 µM
- Ki (Serotonin-5-HT4): > 10 µM
- Ki (Serotonin-5-HT2A): 0.5 µM
- Ki (Serotonin-5-HT1D): 4 µM
- Ki (α2-adrenergic): 0.63 µM
- Ki (Muscarine-M4): > 10 µM
- Ki (Dopamine-D4): 0.02 µM
- Ki (Dopamine-D1): > 10 µM
- ED50 [1]: 0.9 mg/kg
- Ki (Serotonin-5-HT2C): > 10 µM
- Ki (Serotonin-5-HT6): > 10 µM
- logP [2]: 2.6
- Ki (Muscarine-M5): > 10 µM
- Ki (α1-adrenergic): 1 µM
- Ki (Serotonin-5-HT3): > 10 µM
- ED50 (Lower lip retraction): 3 mg/kg
